Laboratory results taken from patent US4094899A, “Oxaprostaglandins” (Pfizer Inc., priority 1973, dated 1978).

Legend:
[1] = system: anesthetized dog blood pressure; assay: depressor effect on anesthetized dog blood pressure; format: in vivo; conditions: for Dog Blood Pressure: relative dose at which oxaprostaglandin derivative has similar action to PGE2 for depressor effect: anesthetized dog
Source text: (§1) These tests include, among others, a test for effect on isolated smooth muscle from guinea pig ileum and rat uterus, a test for effect on histamine induced bronchospasm in guinea pig, a test for effects on dog blood pressure, a test for induction of diarrhea in mice, and a test for the induction of abortion in early pregnant rats.
^(a) Relative dose at which oxaprostaglandin derivative has similar
action to PGE2 for depressor effect on anesthetized dog blood

[2] = system: histamine induced bronchospasm in the guinea pig; assay: histamine induced bronchospasm in the guinea pig (aerosol); format: in vivo; conditions: for Histamine Aerosol: per cent protection for histamine induced bronchospasm: 100 μg/ml aerosol dose, guinea pig
Protocol: as §1
^(b) Per cent protection by 100 μg/ml aerosol dose for histamine
induced bronchospasm in the guinea pig.

estrogenized rat uterus = assay: spasmogenic effect on estrogenized rat uterus in vitro; conditions: read-out: Rat Uterus: threshold dose for spasmogenic effect
Source text: as §1
^(c) Threshold dose for spasmogenic effect on estrogenized rat uterus

guinea pig ileum = assay: spasmogenic effect on guinea pig ileum in vitro; conditions: Cavia porcellus, read-out: Guinea pig Ileum: threshold dose for spasmogenic effect
Source text: as §1
^(d) Threshold dose for spasmogenic effect on guinea pig ileum in […]

[3] = target: norepinephrine stimulated lipolysis; assay: inhibition of norepinephrine stimulated lipolysis; conditions: read-out: K: inhibition constant for norepinephrine stimulated lipolysis
Source text: ^(e) Inhibition constant for norepinephrine stimulated lipolysis.

mice = assay: induction of diarrhea in mice in vivo
Source text: as §1
(§2) On the basis of the difference seen in the rat uterus and guinea pig ileum tests with 19 -oxaprostaglandin E2, one would expect to have a reduction of the unpleasant gastrointestinal side effects which were encountered when natural PGE2 was employed as an abortion inducer (Lancet, 536, 1971).

early pregnant rat = assay: induction of abortion in early pregnant rats; format: in vivo
Source text: as §1, §2

[4] = physiological tests taken together (Table I; comparison with natural prostaglandin); conditions: in words; compared with natural prostaglandin; rat uterus vs guinea pig ileum
Source text: as §1, §2

SMILES	Dog Blood Pressure: relative dose at which oxaprostaglandin derivative has similar action to PGE2 for depressor effect [1]	Histamine Aerosol: per cent protection for histamine induced bronchospasm [2]	minimal effective concentration (estrogenized rat uterus)	minimal effective concentration (guinea pig ileum)	Ki [3]	effectiveness in inducing diarrhea relative to natural PGE2 (mice)	effectiveness in inducing abortion compared with natural PGE2 (early pregnant rat)	tissue selectivity [4]	selectivity with regard to blood pressure effects ([1]; in words, from Table I)	bronchodilator selectivity compared with natural PGE2 ([2]; in words, from Table I)
COCCC[C@H](O)/C=C/[C@H]1[C@H](O)CC(=O)[C@@H]1C/C=C\CCCC(=O)O [19-oxa PGE2, 9-oxo-11α,15α-dihydroxy-19-oxa-cis-5-trans-13-prostadienoic acid]	20	19%	0.05 to 0.1 µg/mL	0.1 to 0.5 µg/mL	2.5 µM	10%	as effective as natural PGE2	tissue selectivity, particularly 19-oxaprostaglandin E2		
CCOCC[C@H](O)/C=C/[C@H]1[C@H](O)CC(=O)[C@@H]1C/C=C\CCCC(=O)O [18-oxa PGE2, 9-oxo-11α,15α-dihydroxy-18-oxa-cis-5-trans-13-prostadienoic acid]	2	3%	0.1 to 0.3 µg/mL	0.1 to 0.3 µg/mL					particularly selective with regard to its blood pressure effects	
CCOCCC[C@H](O)/C=C/[C@H]1[C@H](O)CC(=O)[C@@H]1C/C=C\CCCC(=O)O [19-oxa-ω-homo-PGE2, 9-oxo-11α,15α-dihydroxy-19-oxa-cis-5-trans-13-w-homo-prostadienoic acid]	4	38%	0.1 µg/mL	0.1 µg/mL	4 µM					more selective bronchodilator than natural PGE2
CCOCCC[C@H](O)/C=C/[C@@H]1[C@@H](C/C=C\CCCC(=O)O)[C@@H](O)C[C@H]1O [19-oxa-ω-homo-PGF2α, 9α,11α,15α-trihydroxy-19-oxa-cis-5-trans-13-ω-homoprostadienoic acid]			0.06 to 0.3 µg/mL	≥ 0.1 µg/mL						
CCCCC[C@H](O)/C=C/[C@H]1[C@H](O)CC(=O)[C@@H]1C/C=C\CCCC(=O)O [PGE2, reference compound]	1	75%	0.01 to 0.03 µg/mL	0.01 to 0.03 µg/mL	0.4 µM					
CCOCC[C@H](O)/C=C/[C@@H]1[C@@H](C/C=C\CCCC(=O)O)[C@@H](O)C[C@H]1O [18-oxa PGF2α, 9α,11α,15α-trihydroxy-18-oxa-cis-5-trans-13-prostadienoic acid]			0.3 to 0.6 µg/mL	0.1 to 0.3 µg/mL						
COCCC[C@H](O)/C=C/[C@@H]1[C@@H](C/C=C\CCCC(=O)O)[C@@H](O)C[C@H]1O [19-oxa PGF2α, 9α,11α,15α-trihydroxy-19-oxa-cis-5-trans-13-prostadienoicacid]			0.1 to 0.5 µg/mL	0.1 to 0.5 µg/mL						
